Ends that are not written are not given here.
Assays:
Candida albicans = test system: Candida albicans
Experimental: (§1) Minimal inhibitory concentration (MIC) determination. The MICs of the peptides were measured using a modified broth microdilution method in Mueller Hinton (MH) medium. Wu et al., J. Biol. Chem. 274: 29-35, 1999. Briefly, the peptides were dissolved and stored in glass vials. The assay was performed in sterile 96-well polypropylene microtitre plates were used. Serial dilutions of the peptides to be assayed were performed in 0.01% acetic acid (Fisher) containing 0.2% bovine serum albumin (Boehringer Mannheim GmbH) at 10× the desired final concentration. Ten microlitres of the 10× peptides were added to each well of a 96-well polypropylene plate containing 90 μl of MH media per well. Bacteria were added to the plate from an overnight culture at 2-7×10^5 colony forming units/ml and incubated over night at 37° C. The MIC was taken as the concentration at which no growth was observed.
(§2) Strains. For the killing assay a mini-Tn5-lux mutant in Pseudomonas aeruginosa H103 was used. The strain is called H1001 and contains a fliC::luxCDABE transcriptional fusion resulting in constitutive expression of luciferase. The bacterial strains used for the antimicrobial activity assays included Escherichia coli UB1005 (F-, nalA37, metB1), a wild-type Salmonella enterica ssp. Typhimurium (S. Typhimurium), wild-type Pseudomonas aeruginosa PAO1 strain H103, Enterococcus faecalis ATCC29212, Staphylococcus aureus ATCC25923, and a clinical isolate of Staphylococcus epidermidis obtained from Dr. D. Speert (Department of Medicine, University of British Columbia). Antifungal activity was tested using a lab isolate of Candida albicans obtained from Dr. B. Dill (Department of Microbiology and Immunology, University of British Columbia).
(§3) In addition, the parent peptide Bac2A was included in these studies as a standard. The minimal inhibitory concentrations (MIC) were determined for the important medical pathogens Pseudomonas aeruginosa, Escherichia coli, Salmonella typhimurium, Staphylococcus aureus, Staphylococcus epidermidis, Enterococcus faecaelis, and the yeast Candida albicans in Mueller-Hinton media.

[1] = test system: Enterococcus faecalis ATCC29212; conditions: ATCC29212
Experimental: as §1, §2, §3

[2] = test system: Pseudomonas aeruginosa PAO1 strain H103; conditions: PAO1
Experimental: as §1, §2, §3

[3] = test system: Salmonella enterica ssp. Typhimurium; conditions: ssp. Typhimurium
Experimental: as §1, §2, §3

[4] = test system: Staphylococcus aureus ATCC25923; conditions: ATCC25923
Experimental: as §1, §2, §3

[5] = test system: Staphylococcus epidermidis
Experimental: as §1, §2, §3

[6] = test system: Pseudomonas aeruginosa strain H1001; test: Assay for the cleaved (free, soluble) peptides from cellulose support, luminescence killing assay; assay type: cell-based; set-up: key: 1: Peptides showing stronger killing than Bac2A at a 4 to 8-fold higher dilution; Peptides showing stronger killing compared to that of Bac2A at a 4-fold higher dilution; 3: Peptides similar to Bac2A; 4: Peptides similar to Bac2A at the highest concentration but demonstrating weaker killing at a 2-fold dilution; 5: Peptides giving very weak or no killing at a 2-fold dilution; 6: Peptides with weak killing activity at the highest concentration; conditions: free (cleaved) peptides, killing relative to Bac2A
Summary of the method: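 Cellulose-synthesized peptides (amidated C-terminus, two β-alanines) cleaved by ammonia, released from punched spots 30 min at 37 °C, then serially diluted. P. aeruginosa H1001 (constitutive fliC::luxCDABE) overnight culture diluted 1:500 in LB or 100 mM Tris pH 7.3/20 mM glucose. Killing followed as time-dependent luminescence loss at 37 °C.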

[7] = test system: Pseudomonas aeruginosa strain H1001 fliC::luxCDABE; test: Luminescence-based assay for the non-cleaved (bound) peptides on cellulose membranes; assay type: cell-based; conditions: for Luminescence at the given time in minutes: 0 / Luminescence at the given time in minutes: 20 / Luminescence at the given time in minutes: 40 / Luminescence at the given time in minutes: 60 / Luminescence at the given time in minutes: 80 / Luminescence at the given time in minutes: 100 / Luminescence at the given time in minutes: 120 / Luminescence at the given time in minutes: 180 / Luminescence at the given time in minutes: 240: cellulose-bound peptide; for Luminescence at the given time in minutes: 0: 0 min; for Luminescence at the given time in minutes: 20: 20 min; for Luminescence at the given time in minutes: 40: 40 min; for Luminescence at the given time in minutes: 60: 60 min; for Luminescence at the given time in minutes: 80: 80 min; for Luminescence at the given time in minutes: 100: 100 min; for Luminescence at the given time in minutes: 120: 120 min; for Luminescence at the given time in minutes: 180: 180 min; for Luminescence at the given time in minutes: 240: 240 min; for Activity Class bound: uncleaved cellulose-bound peptides
Summary of the method: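 Peptides remained bound to cellulose spots, which were ethanol-washed and equilibrated in 100 mM Tris pH 7.3. Constitutively lux-expressing P. aeruginosa (OD600 0.35 culture diluted 1:25) added in 10 mM Tris-HCl pH 7.3, 20 mM glucose at 37° C. Luminescence (RLU) followed over 14 time points; peptides binned into six activity classes.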

| Substance | MIC C. albicans (Candida albicans) [µg/mL] | MIC E. faecalis [1] [µg/mL] | MIC P. aerug [2] [µg/mL] | MIC S. Typhim. [3] [µg/mL] | MIC S. aureus [4] [µg/mL] | MIC S. epi. [5] [µg/mL] | Activity Class Soluble [6] | Luminescence at the given time in minutes: 0 [7] [RLU] | Luminescence at the given time in minutes: 20 [7] [RLU] | Luminescence at the given time in minutes: 40 [7] [RLU] | Luminescence at the given time in minutes: 60 [7] [RLU] | Luminescence at the given time in minutes: 80 [7] [RLU] | Luminescence at the given time in minutes: 100 [7] [RLU] | Luminescence at the given time in minutes: 120 [7] [RLU] | Luminescence at the given time in minutes: 180 [7] [RLU] | Luminescence at the given time in minutes: 240 [7] [RLU] | Activity Class bound [7] | MIC P. aeruginosa [2] [µg/mL] |
| --- | --- | --- | --- | --- | --- | --- | --- | --- | --- | --- | --- | --- | --- | --- | --- | --- | --- | --- |
| GLARIVVIRVAR-NH2 (C-terminus assumed) [Bac206] | 125 | 31 | 125 | 63 | 63 | 16 |  |  |  |  |  |  |  |  |  |  |  |  |
| KIWVIRWR-NH2 (C-terminus assumed) [Bac434] | 16 | 16 | 16 | 31 | 16 | 4 |  |  |  |  |  |  |  |  |  |  |  |  |
| LARIVVIRVAR-NH2 (C-terminus assumed) [Bac102] | 83 | 46 | 83 | >83 | 83 | 11 |  |  |  |  |  |  |  |  |  |  |  |  |
| RGARIVVIRVAR-NH2 (C-terminus assumed) [Bac225] | 16 | 31 | 31 | 31 | 31 | 16 |  |  |  |  |  |  |  |  |  |  |  |  |
| RIWVIRWR-NH2 (C-terminus assumed) [Bac435] | 16 | 8 | 16 | 16 | 4 | 4 |  |  |  |  |  |  |  |  |  |  |  |  |
| RIWVIWRR-NH2 (C-terminus assumed) [Bac436] | 8 | 2 | 8 | 8 | 2 | 2 |  |  |  |  |  |  |  |  |  |  |  |  |
| RLARIVKIRVAR-NH2 (C-terminus assumed) [Bac323] | 31 | 125 | 31 | 63 | 125 | 31 |  |  |  |  |  |  |  |  |  |  |  |  |
| RLARIVVFRVAR-NH2 (C-terminus assumed) [Bac338] | >250 | >250 | >250 | >250 | >250 | >250 |  |  |  |  |  |  |  |  |  |  |  |  |
| RLARIVVIRV-NH2 (C-terminus assumed) [Bac103] | 23 | 23 | 46 | 46 | 46 | 11 |  |  |  |  |  |  |  |  |  |  |  |  |
| RLARIVVIRVA-NH2 (C-terminus assumed) [Bac101] | 63 | 31 | 63 | 31 | 63 | 16 |  |  |  |  |  |  |  |  |  |  |  |  |
| RLARIVVIRVAG-NH2 (C-terminus assumed) [Bac415] | 63 | 31 | 63 | 63 | 63 | 31 |  |  |  |  |  |  |  |  |  |  |  |  |
| RLARQVVIRVAR-NH2 (C-terminus assumed) [Bac289] | 8 | 4 | 16 | 8 | 8 | 2 |  |  |  |  |  |  |  |  |  |  |  |  |
| RLARRVVIRVAR-NH2 (C-terminus assumed) [Bac290] | 125 | 125 | 63 | 31 | 63 | 16 |  |  |  |  |  |  |  |  |  |  |  |  |
| RVLIVIRARRVA-NH2 (C-terminus assumed) [Bac043] |  |  |  |  | 23 |  | 1 | 5254 | 6385 | 3722 | 1189 | 313 | 159 | 67 | 84 | 52 | 3 (Peptides similar to Bac2A resulting in lux values of less than 500 after 240 min.) | 40 |
| VRIRARRVILVA-NH2 (C-terminus assumed) [Bac006] |  |  |  |  | 28 |  | 1 | 3878 | 6829 | 4619 | 2393 | 867 | 469 | 277 | 286 | 306 | 3 (Peptides similar to Bac2A resulting in lux values of less than 500 after 240 min.) | 28 |
| VVRALRRIIARV [Bac048] |  |  |  |  |  |  | 4 | 5001 | 6505 | 5163 | 4406 | 3824 | 3470 | 3423 | 3268 | 3694 | 6 (Peptides having residual luminescence (lux) values greater than 3000 after 240 min.) |  |

From patent US20080207522A1, “Antimicrobial Peptides” (priority 2004, published 2008)
